The record followed here is PMC12419922, “Myristoylated Cathelicidin-DM Fused With ANG1-7: A Novel Self-Assembling Antimicrobial Peptide for the Treatment and Mechanism of Diabetic Infected Wounds” (Journal of Diabetes Research, 2025).

Test [1] relates to PI3K/AKT/eNOS signaling pathway, MasR in HUVECs. Put plainly: Western blot of PI3K/AKT/eNOS signaling pathway and MasR. The test is classed as cell-based, human. The method, then: After the specified treatments, HUVECs were harvested using a cell scraper and lysed in cell lysis buffer (Wuhan Boster Biological Engineering Co., Ltd.) for 30 min at 4°C. Total protein was quantified using a BCA protein assay kit. Lysate (20 μg) from each sample was separated by 10% sodium dodecyl sulfate–polyacrylamide gel electrophoresis (SDS-PAGE) and then transferred to a polyvinylidene fluoride (PVDF) membrane. The membrane was blocked with a fresh blocking buffer containing 5% skim milk in Tris-buffered saline with 0.1% Tween 20 (TBS-T) for 2 h at room temperature and then incubated with primary antibodies against AKT (1:1000 dilution, #4691, Cell Signaling Technology), p-AKT (1:2000 dilution, #4060, Cell Signaling Technology), PI3K (1:1000 dilution, ab191606, Abcam), p-PI3K (1:1000 dilution, ab278545, Abcam), eNOS (1:1000 dilution, #32027, Cell Signaling Technology), p-eNOS (1:1000 dilution, ab215717, Abcam), and Mas (1:1000 dilution, #85003-1-RR, Proteintech) overnight at 4°C with shaking. The membrane was washed with TBS-T for 15 min and then incubated with horseradish peroxidase (HRP)–conjugated goat anti-rabbit secondary antibody (Wuhan Sanying Biotechnology Co., Ltd.) at a 1:2000 dilution in TBS-T and 3% skim milk for 90 min at room temperature. The membrane was washed three times with TBS-T, each for 15 min, and the immune reaction signals were detected using an ECL detection method. Protein bands were detected using a chemiluminescent gel imaging system (Bio-Rad Lab, China). Protein expression was quantitatively analyzed using ImageJ software (National Institutes of Health, Bethesda, MD, United States), and the experiment was repeated three times.
A general note: Immunoblotting shows a protein as a band on a membrane.

Test [2] has as its system HUVECs. Nature of the test: Scratch wound healing assay. The test is classed as cell-based, human. To be noted: HG + LPS, 20 μg/mL, n = 3. The method, then: In a 6-well plate, HUVECs (2 × 10^5 cells/well) were seeded. The cells were starved in serum-free medium for 12 h, and then, a scratch was made vertically using a 200-μL pipette tip. […]
Test [3] relates to HUVECs. Put plainly: Tube formation (angiogenesis) on Matrigel. As to conditions: 9 h, n = 3. The test is classed as cell-based, human. How it is done:
The formation of vascular structure was observed by matrix glue experiment, and the angiogenesis ability was evaluated in Matrigel stent (Corning, New York). After treatment in each group, 300 μL (2 × 10^5 cells/mL) HUVECs were digested and inoculated into a 24-well plate containing Matrigel scaffold. After 9 h, the formation image of the tube was photographed.

Test [4] has as its system HUVECs. Nature of the test: Transwell migration assay. Format: cell-based, human. As to conditions: HUVECs in HG + LPS; p < 0.01. How it is done: HUVECs (1 × 10^4 cells/well) were incubated in the upper chamber of an 8-μm pore size (Corning, New York) and placed into a 24-well plate for 16 h at 37°C with 5% CO2. Cells adhering to the top surface of the Transwell membrane were carefully removed using a cotton swab. Cells that had migrated to the bottom of the chamber were fixed with 4% paraformaldehyde for 30 min and stained with 0.1% CV for 20 min. Finally, the chambers were placed on slides and imaged using an inverted fluorescence microscope (ThermoFish EVOS, United States). The number of cells in five random fields of each chamber was counted to determine migration ability.

In test [5] the test system is E. coli biofilms. Put plainly: Antibiofilm activity, crystal violet staining and colony counting. Format: cell-based, Escherichia coli. To be noted: different concentrations, 37°C, 24 h, crystal violet OD 595 nm and viable count. How it is done: E. coli (ATCC 25922) and S. aureus (ATCC 25923) were cultured overnight in MHB medium at 37°C. The bacterial suspension was diluted to 100 times and added to a 12-well plate (500 μL/well). Each peptide with a different concentration was added to the corresponding well plate and incubated at 37°C for 24 h. After incubation, 100 μL of culture supernatant was discarded. The biofilm was fixed with 100 μL of 100% methanol for 15 min, then air-dried, then dyed with 0.1% crystal violet (CV) for 30 mins, and washed with distilled water three times. After adding 200 μL of 95% ethanol, the inhibition rate of the biofilm was calculated by measuring the OD value at 595 nm with Infinite M200 PRO, Switzerland. After ultrasonic treatment, the biofilm was fully dispersed into single cells, and the cell suspension was diluted to a suitable concentration for colony counting. All experiments were repeated three times.
The formation of bacterial biofilms in the wounds of DFU patients is the main cause of bacterial resistance. By measuring the antibiofilm ability, the inhibitory and clearing effects of drugs on biofilms can be assessed. In the case of preventing biofilm formation, E. coli and S. aureus were cultured in LB nutrient medium with different concentrations of the novel AMP MYR-DM-ANG1-7 in 24-well plates at 37°C and incubate for 24 h. […]

The test system of test [6] is S. aureus (ATCC 25923). Nature of the test: MIC and growth inhibition, broth microdilution. Format: cell-based, Staphylococcus aureus. The method, then: The minimum inhibitory concentrations (MICs) of DM and MYR-DM-ANG1-7 were determined using the broth microdilution method. E. coli (ATCC 25922) and S. aureus (ATCC 25923) were cultured overnight in Mueller–Hinton broth (MHB) at 37°C. The cultures were diluted to 2 × 10^5 CFU/mL. The peptides were serially diluted in 10 mM phosphate-buffered solution (PBS) and added to a 96-well plate. The bacterial suspensions were mixed with an equal volume of peptide solution and incubated at 37°C for 18 h. Bacterial growth inhibition was determined by measuring the absorbance at 600 nm using a M200 multiwavelength microplate reader (Infinite M200 PRO, Switzerland). Subsequently, bacterial suspensions were treated with 1 × MIC, 2 × MIC, 3 × MIC, and 4 × MIC concentrations of the AMPs and sampled at 0, 3, 6, 12, 18, and 24 h. The absorbance was measured at 600 nm. The experiment was repeated three times.
In general terms: In broth dilution the organism is exposed to a series of concentrations in liquid medium.

Where no end group is shown, it is not given here. The star is where a group is joined. Myristoyl = CCCCCCCCCCCCCC(=O)*

Consider “Myristoyl-SSRRKPCKGWLCKLKLRGGYTLIGSATNLNRPTYVRAGGGDRVYIHP (cysteines drawn unpaired) [MYR-DM-ANG1-7]”, for which the “expression of membrane receptor MasR” value in test [1] (after HG treatment and drug treatment) is on record as “significantly increased”. In test [1] (pretreatment then HG + LPS), the “phosphorylation level of eNOS” value is “increased”. Also, the “phosphorylation level of AKT (p-AKT/total AKT)” value in test [1] (pretreatment then HG + LPS (HG + LPS 0.4-fold), n = 3) is listed as 0.94 fold. In test [1] (pretreatment then HG + LPS (HG + LPS 0.8-fold), n = 3), the “phosphorylation level of PI3K (p-PI3K/total PI3K)” value amounted to 1.28 fold. The “wound healing rate (scratch assay)” value in test [2] (after 12 h) is listed as 61.6%. The “healing area (scratch assay)” value in test [2] (at 48 h) worked out at 100%. For the same substance, the “main connections of formed blood vessels” value in test [3] (HG + LPS (HG + LPS group 0.3 times)) is on record as 1.9 times. In addition, in test [3] (HG + LPS (HG + LPS group 0.4 times)), the “length of formed blood vessels” value turned out to be 1.7 times. For the same substance, the “number of cells passing through the chamber (Transwell)” value in test [4] is listed as “increased”. Also, in test [5], the “formation of E. coli biofilms” value is reported as “effectively inhibit”. For the same substance, in test [6] (4 × MIC (128 μg/mL), OD 600 nm at 0-24 h, repeated three times), the “growth of S. aureus (inhibition curve)” value was “completely inhibit”. The same substance returned a Minimum inhibitory concentration in test [6] (S. aureus ATCC 25923, broth microdilution, MHB, 2 × 10^5 CFU/mL, 37°C, 18 h, absorbance 600 nm) of 16 µg/mL.
